Data from US7879876B2, “Sulfonamide derivatives and use thereof for the modulation of metalloproteinases” (Merck Serono SA, priority 2005, dated 2011).

Assays:
metalloelastase (MMP-12) = metalloelastase (MMP-12) (Homo sapiens, UniProt P39900); assay: MMP-12 enzyme inhibition assay (coumarin-labelled peptide substrate); format: biochemical; details: read-out: IC50 MMP12
In short: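 Recombinant human MMP-12 assayed per the MMP-9 protocol: Tris-HCl pH 7.6 buffer with NaCl, CaCl2, Brij 35; McaPLGLDpaAR substrate, compounds 100 μM–5.1 nM in duplicate, 2 h at 37° C. Fluorescence read at 405 nm (320 nm excitation) without stopping; IC50 from four-parameter fit.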

gelatinase A (MMP-2) = molecular target: T1, gelatinase A (MMP-2) (Homo sapiens, UniProt P08253); assay: MMP-2 enzyme inhibition assay (coumarin-labelled peptide substrate); format: biochemical; details: read-out: IC50 MMP2
T1 sequence (P08253 110-660): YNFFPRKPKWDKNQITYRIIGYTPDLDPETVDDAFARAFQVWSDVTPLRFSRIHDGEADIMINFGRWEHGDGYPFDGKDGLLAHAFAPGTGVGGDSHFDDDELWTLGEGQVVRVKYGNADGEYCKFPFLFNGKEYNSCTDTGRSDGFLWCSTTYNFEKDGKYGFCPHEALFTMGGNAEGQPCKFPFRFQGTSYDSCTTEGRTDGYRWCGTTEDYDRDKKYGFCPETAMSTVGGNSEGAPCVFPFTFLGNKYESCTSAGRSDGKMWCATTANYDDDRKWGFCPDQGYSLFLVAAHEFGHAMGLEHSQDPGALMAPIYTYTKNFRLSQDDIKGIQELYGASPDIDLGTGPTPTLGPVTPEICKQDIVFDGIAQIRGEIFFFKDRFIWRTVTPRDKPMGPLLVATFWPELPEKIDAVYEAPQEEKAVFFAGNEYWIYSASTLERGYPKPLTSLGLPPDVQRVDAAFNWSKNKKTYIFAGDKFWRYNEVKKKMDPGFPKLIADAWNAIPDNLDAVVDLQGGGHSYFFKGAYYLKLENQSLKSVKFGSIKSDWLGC
In short: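 Recombinant human MMP-2, APMA-activated if necessary, run as for the MMP-9 protocol: McaPLGLDpaAR substrate (8 μM working dilution) in 100 mM Tris-HCl pH 7.6, 100 mM NaCl, 10 mM CaCl2, 0.05% Brij 35; ten 3-fold concentrations (100 μM–5.1 nM) in duplicate, 2 h at 37° C. Fluorescence ex 320/em 405 nm, unstopped; IC50 from four-parameter fit.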

Chain of metalloelastase (MMP-12) (P39900 106-470): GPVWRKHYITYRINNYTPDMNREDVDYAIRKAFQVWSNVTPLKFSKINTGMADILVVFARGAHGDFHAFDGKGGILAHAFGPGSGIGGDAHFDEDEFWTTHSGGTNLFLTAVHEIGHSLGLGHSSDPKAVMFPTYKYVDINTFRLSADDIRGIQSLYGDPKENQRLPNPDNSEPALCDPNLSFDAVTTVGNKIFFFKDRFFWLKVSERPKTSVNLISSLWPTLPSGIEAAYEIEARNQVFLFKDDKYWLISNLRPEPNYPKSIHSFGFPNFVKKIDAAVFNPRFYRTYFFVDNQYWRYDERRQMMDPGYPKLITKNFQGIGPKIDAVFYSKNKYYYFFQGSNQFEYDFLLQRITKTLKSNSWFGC

| Structure (SMILES) | IC50 (metalloelastase (MMP-12)) [µM] | IC50 (gelatinase A (MMP-2)) [µM] |
| --- | --- | --- |
| O=CN(O)C(CS(=O)(=O)N1CCc2ccc(F)cc2C1)C1CCCC1 (centres unmarked) [Example 60, N-{1-cyclopentyl-2-[(7-fluoro-3,4-dihydroisoquinolin-2(1H)-yl)sulfonyl]ethyl}-N-hydroxyformamide] | 0.069 | 0.411 |
| O=CN(O)C(COCc1ccccc1)CS(=O)(=O)N1CCc2ccc(Cl)cc2C1 (centres unmarked) [Example 58, N-(2-(benzyloxy)-1-{[(7-chloro-3,4-dihydroisoquinolin-2(1H)-yl)sulfonyl]methyl}ethyl)-N-hydroxyformamide] | 0.0045 | 0.02 |
| COc1ccc(C(CS(=O)(=O)N2CCc3ccccc3C2)N(O)C=O)cn1 (centres unmarked) [Example 13, N-[2-(3,4-dihydroisoquinolin-2(1H)-ylsulfonyl)-1-(6-methoxypyridin-3-yl)ethyl]-N-hydroxyformamide] | 0.01 | > 5 |
| O=CN(O)[C@@H](CS(=O)(=O)N1CCc2ccc(C(F)(F)F)cc2C1)[C@H]1CCCO1 [Example 32, N-hydroxy-N-((1R)-1-[(2R)-tetrahydrofuran-2-yl]-2-{[7-(trifluoromethyl)-3,4-dihydroisoquinolin-2(1H)-yl]sulfonyl}ethyl)formamide] | 0.168 | > 5 |
| CC(C)(CS(=O)(=O)N1CCc2ccc(Br)cc2C1)N(O)C=O [Example 56, N-{2-[(7-bromo-3,4-dihydroisoquinolin-2(1H)-yl)sulfonyl]-1,1-dimethylethyl}-N-hydroxyformamide] | 0.051 | 0.19 |
| CC(C)c1ccc2c(c1)CCN(S(=O)(=O)C[C@H]([C@H]1CCCO1)N(O)C=O)C2 [Example 45, N-hydroxy-N-{(1S)-2-[(6-isopropyl-3,4-dihydroisoquinolin-2(1H)-yl)sulfonyl]-1-[(2R)-tetrahydrofuran-2-yl]ethyl}formamide] | 0.0015 | 0.025 |
| O=CN(O)C(CCC(F)(F)F)CS(=O)(=O)N1CCc2ccc(Cl)cc2C1 (centres unmarked) [Example 76, N-(1-{[(7-chloro-3,4-dihydroisoquinolin-2(1H)-yl)-sulfonyl]methyl}-4,4,4-trifluorobutyl)-N-hydroxyformamide] | 0.022 | 0.082 |
| O=CN(O)C1(CS(=O)(=O)N2CCc3ccc(Cl)cc3C2)CCCC1 [Example 62, N-(1-{[(7-chloro-3,4-dihydroisoquinolin-2(1H)-yl)-sulfonyl]methyl}cyclopentyl)-N-hydroxyformamide] | 0.036 | 0.293 |
| O=CN(O)C(CS(=O)(=O)N1CCc2ccccc2C1)c1cncnc1 (centres unmarked) [Example 9, N-[2-(3,4-dihydroisoquinolin-2(1H)-ylsulfonyl)-1-pyrimidin-5-ylethyl]-N-hydroxyformamide] | 0.049 | > 5 |
| CC(C)CC(CS(=O)(=O)N1CCc2ccc(Br)cc2C1)N(O)C=O (centres unmarked) [Example 55, N-(1-{[(7-bromo-3,4-dihydroisoquinolin-2(1H)-yl)-sulfonyl]methyl}-3-methylbutyl)-N-hydroxyformamide] | 0.006 | 0.024 |
| O=CN(O)[C@H](CS(=O)(=O)N1Cc2ccc(F)cc2C1)[C@H]1CCCO1 [Example 29, N-{(1S)-2-[(5-fluoro-1,3-dihydro-2H-isoindol-2-yl)-sulfonyl]-1-[(2R)-tetrahydrofuran-2-yl]ethyl}-N-hydroxyformamide] | 0.014 | 0.15 |
| O=CN(O)C(CS(=O)(=O)N1CCc2ccc(Cl)cc2C1)C1CC1 (centres unmarked) [Example 73, N-{2-[(7-chloro-3,4-dihydroisoquinolin-2(1H)-yl)sulfonyl]-1-cyclopropylethyl}-N-hydroxyformamide] | 0.045 | 0.187 |
| O=CN(O)C(CS(=O)(=O)N1CCc2cc(C(F)(F)F)ccc2C1)[C@H]1CCCO1 (stereo partly drawn) [Example 47, N-hydroxy-N-(1-[(2R)-tetrahydrofuran-2-yl]-2-{[6-(tri-fluoromethyl)-3,4-dihydroisoquinolin-2(1H)-yl]sulfonyl}ethyl)formamide] | 0.0025 | 0.033 |
| CC(C)(C)CC(CS(=O)(=O)N1CCc2cc(Cl)c(Cl)cc2C1)N(O)C=O (centres unmarked) [Example 42, N-(1-{[(6,7-dichloro-3,4-dihydroisoquinolin-2(1H)-yl)-sulfonyl]methyl}-3,3-dimethylbutyl)-N-hydroxyformamide] | 0.0044 | 0.031 |
| CCC#CCC(C)(C)C(CS(=O)(=O)N1CCc2cc(C(F)(F)F)ccc2C1)N(O)C=O (centres unmarked) [Example 30, N-[2,2-dimethyl-1-({[6-(trifluoromethyl)-3,4-dihydro-isoquinolin-2(1H)-yl]sulfonyl}methyl)hept-4-yn-1-yl]-N-hydroxyformamide] | 0.032 | 0.88 |
| O=CN(O)C(CS(=O)(=O)N1CCc2ccccc2C1)c1cccnc1 (centres unmarked) [Example 10, N-[2-(3,4-dihydroisoquinolin-2(1H)-ylsulfonyl)-1-pyridin-3-ylethyl]-N-hydroxyformamide] | 0.013 | > 5 |
| O=CN(O)C(CCc1cccnc1)CS(=O)(=O)N1CCc2ccc(Cl)cc2C1 (centres unmarked) [Example 86, N-(1-{[(7-chloro-3,4-dihydroisoquinolin-2(1H)-yl)sulfonyl]methyl}-3-pyridin-3-ylpropyl)-N-hydroxyformamide] | 0.0098 | 0.021 |
| CC(C)(C)CC(CS(=O)(=O)N1CCc2cc(C(F)(F)F)ccc2C1)N(O)C=O (centres unmarked) [Example 43, N-[3,3-dimethyl-1-({[6-(trifluoromethyl)-3,4-dihydro-isoquinolin-2(1H)-yl]sulfonyl}methyl)butyl]-N-hydroxyformamide] | 0.0032 | 0.021 |
| CC1(C)OC[C@H](C(CS(=O)(=O)N2Cc3ccccc3C2)N(O)C=O)O1 (stereo partly drawn) [Example 16, N-{2-(1,3-dihydro-2H-isoindol-2-ylsulfonyl)-1-[(4S)-2,2-dimethyl-1,3-dioxolan-4-yl]ethyl}-N-hydroxyformamide] | 0.012 | 0.078 |
| O=CN(O)C(CS(=O)(=O)N1CCc2ccc(-c3ccccc3)cc2C1)C1CCCC1 (centres unmarked) [Example 69, N-{1-cyclopentyl-2-[(7-phenyl-3,4-dihydroisoquinolin-2(1H)-yl)sulfonyl]ethyl}-N-hydroxyformamide] | 0.018 | 0.527 |
| CC1(C)OC[C@H](C(CS(=O)(=O)N2CCc3ccc(C(F)(F)F)cc3C2)N(O)C=O)O1 (stereo partly drawn) [Example 28, N-(1-[(4S)-2,2-dimethyl-1,3-dioxolan-4-yl]-2-{[7-(trifluoro-methyl)-3,4-dihydroisoquinolin-2(1H)-yl]sulfonyl}ethyl)-N-hydroxyformamide] | 0.0039 | 0.045 |
| COc1cc2c(cc1OC)CN(S(=O)(=O)CC([C@H](O)CO)N(O)C=O)CC2 (stereo partly drawn) [Example 24, N-((2S)-1-{[(6,7-dimethoxy-3,4-dihydroisoquinolin-2(1H)-yl)sulfonyl]methyl}-2,3-dihydroxypropyl)-N-hydroxyformamide] | 0.3 | > 5 |
| COc1cc2c(cc1OC)CN(S(=O)(=O)CC(CCc1ccccc1)N(O)C=O)CC2 (centres unmarked) [Example 12, N-(1-{[(6,7-dimethoxy-3,4-dihydroisoquinolin-2(1H)-yl)sulfonyl]methyl}-3-phenylpropyl)-N-hydroxyformamide] | 0.092 | > 5 |
| COc1ccc2c(c1)CN(S(=O)(=O)CC(CCC1CCCO1)N(O)C=O)CC2 (centres unmarked) [Example 33, N-hydroxy-N-[1-{[(7-methoxy-3,4-dihydroisoquinolin-2(1H)-yl)sulfonyl]methyl}-3-(tetrahydrofuran-2-yl)propyl]formamide] | 0.027 | 0.151 |
| O=CN(O)C(CS(=O)(=O)N1Cc2ccc(F)cc2C1)C1CCCC1 (centres unmarked) [Example 80, N-{1-cyclopentyl-2-[(5-fluoro-1,3-dihydro-2H-isoindol-2-yl)sulfonyl]ethyl}-N-hydroxyformamide] | 0.045 | 0.474 |
| CC(C)C(CS(=O)(=O)N1CCc2ccc(-c3ccc(F)cc3)cc2C1)N(O)C=O (centres unmarked) [Example 50, N-[1-({[7-(4-fluorophenyl)-3,4-dihydroisoquinolin-2(1H)-yl]sulfonyl}methyl)-2-methylpropyl]-N-hydroxyformamide] | 0.0035 | 0.09 |
| O=CN(O)[C@H](CS(=O)(=O)N1CCc2ccc(Cl)cc2C1)[C@H]1CCCO1 [Example 23, N-{(1S)-2-[(7-chloro-3,4-dihydroisoquinolin-2(1H)-yl)sulfonyl]-1-[(2R)-tetrahydrofuran-2-yl]ethyl}-N-hydroxyformamide] | 0.028 | 0.027 |
| CCC(CC)C(CS(=O)(=O)N1CCc2cc(Cl)c(Cl)cc2C1)N(O)C=O (centres unmarked) [Example 34, N-(1-{[(6,7-dichloro-3,4-dihydroisoquinolin-2(1H)-yl)-sulfonyl]methyl}-2-ethylbutyl)-N-hydroxyformamide] | 0.006 | 0.035 |
